Data published in patent US20090137565A1, “Method for treatment of movement disorders” (The Trustees of Columbia University in the City of New York, priority 2004, published 2009).

Tested on: severe alcohol-responsive posthypoxic myoclonus
Assay: Single-patient open-label dose-finding trial of GHB, blinded Unified Myoclonus Rating Scale (UMRS)
Assay type: in vivo, human
Details: for UMRS I (Self Assessment) score: max 44, 0 gm score 33; for UMRS VIII (Severity) score: max 3, 0 gm score 2; for UMRS I (Global Disability) score / UMRS VI (MD Global Disab.) score: max 4, 0 gm score 3; for UMRS III (Stimulus-Sens.) score: max 17, 0 gm score 12; for UMRS V (Funct. Performance) score: max 20, 0 gm score 20; for UMRS II (Myoclonus @ Rest) score: max 128, 0 gm score 21; for UMRS IV (Action Myoclonus) score: max 160, 0 gm score 108; for UMRS VII (Neg. Myoclonus) score: present (1) or absent (0), 0 gm score 1
Method: An open-label, dose-finding, blinded rating trial of GHB in a single patient with severe, debilitating alcohol-responsive posthypoxic myoclonus refractory to treatment with standard anti-myoclonic agents was conduced. […] Intensity and severity of myoclonus was measured using the Unified Myoclonus Rating Scale (UMRS), a non-invasive clinical rating scale. In addition, the patient was videotaped while the UMRS was performed, so that myoclonus could be scored by a blinded rater.
Given the dramatic response to alcohol, a single-patient, open-label, dose-ranging trial to assess the tolerability and efficacy of GHB (Xyrem®, Orphan Medical, Inc.) as a treatment for alcohol-responsive posthypoxic myoclonus was designed, which was approved by The Columbia University Medical Center Institutional Review Board. After obtaining informed consent, they were videotaped during performance of the Unified Myoclonus Rating Scale (UMRS). The UMRS is a validated clinical rating instrument that measures the severity and intensity of myoclonus and has been used in other trials of anti-myoclonic agents. Frucht S. J., et al., Adv Neurology Vol. 89 Lippincott Williams and Wilkins, Philadelphia, 2002:361-376. The scale consists of eight sections: section I: patient questionnaire (11 items); section II: myoclonus at rest (frequency and amplitude, 16 items); section III: stimulus-sensitive myoclonus (17 items); section IV: severity of myoclonus with action (frequency and amplitude, 20 items); section V: performance on functional tests (5 items); section VI: physician rating of patient's global disability (1 item); section VII: presence of negative myoclonus (1 item); section VIII: severity of negative myoclonus (1 item). Each item is rated on a scale of 0 to 4, with higher scores assigned to myoclonus of greater severity or frequency. For section III stimulus-sensitivity is either present (1) or absent (0); section VII negative myoclonus either present (1) or absent (0); and section VIII negative myoclonus absent (0) to severe (3).
All office visits and the UMRS scale were performed by the supervisory physician. The patient came to the office for five visits, each separated by two weeks (time 0, 2 weeks, 4 weeks, 6 weeks and 8 weeks). At each visit, the physician examined the patient, and inquired about any adverse events. The physician performed the UMRS while the patient was videotaped. Xyrem® was dispensed by the physician at each visit.
At the initial visit the UMRS was performed and videotaped, 1 gm of GHB was administered by mouth, and they were monitored in the office for one hour. They then took 1 gm twice daily for two weeks, at which time they returned to the office. One hour after receiving 2 grams of GHB, the UMRS was performed and videotaped and for the next two weeks they took 2 grams twice daily. Two weeks later, the UMRS was performed and videotaped one hour after receiving 3 grams of GHB, and after two weeks of 3 grams twice daily, the same procedure was performed after receiving 4 grams in the office. After taking 4 grams twice daily for two weeks, they returned for UMRS videotaping, and the decision was made to continue the target dose of 4 gm twice daily.
A movement disorder neurologist blinded to the trial design scored videotapes of the baseline visit, 2 gm, 3 gm, 4 gm (first) and 4 gm (second) visits in random order. The blinded rater was not provided with treatment scores of section I of the UMRS (patient self-assessment) in order to maintain the rating blind. Scores for each section were calculated as described previously. Frucht S. J., et al., Adv Neurology Vol. 89. Lippincott Williams and Wilkins, Philadelphia, 2002:361-376.

With `O=C([O-])CCCO.[Na+]` [GHB, 4-hydroxybutanoic acid monosodium salt] the “resting and stimulus-sensitive myoclonus” value (2 gm twice daily) was “markedly improved”, the “UMRS I (Self Assessment) score” value (2 gm, 1 h after oral dose) was 31 and the “UMRS VIII (Severity) score” value (2 gm) was 2. The “UMRS I (Global Disability) score” value (2 gm) was 3, the “UMRS VI (MD Global Disab.) score” value (2 gm) was 2 and the “UMRS III (Stimulus-Sens.) score” value (2 gm) was 5. For the same compound, the “UMRS V (Funct. Performance) score” value (2 gm) was 10, the “UMRS II (Myoclonus @ Rest) score” value (2 gm) was 8 and the “UMRS IV (Action Myoclonus) score” value (2 gm) was 70. The “UMRS VII (Neg. Myoclonus) score” value (2 gm) was 1, the “resting and stimulus-sensitive myoclonus” value (3 gm twice daily) was “virtually disappeared” and the “UMRS VIII (Severity) score” value (3 gm) was 2. For the same compound, the “UMRS I (Global Disability) score” value (3 gm) was 2, the “UMRS VI (MD Global Disab.) score” value (3 gm) was 2 and the “UMRS III (Stimulus-Sens.) score” value (3 gm) was 1. The “UMRS V (Funct. Performance) score” value (3 gm) was 8, the “UMRS I (Self Assessment) score” value (3 gm) was 25 and the “UMRS II (Myoclonus @ Rest) score” value (3 gm) was 3. For the same compound, the “UMRS IV (Action Myoclonus) score” value (3 gm) was 64, the “UMRS VII (Neg. Myoclonus) score” value (3 gm) was 1 and the “UMRS VIII (Severity) score” value (4 gm (2nd visit)) was 2. For the same compound, the “UMRS I (Global Disability) score” value (4 gm (2nd visit)) was 2, the “UMRS VI (MD Global Disab.) score” value (4 gm (2nd visit)) was 2 and the “UMRS III (Stimulus-Sens.) score” value (4 gm (2nd visit)) was 3. For the same compound, the “UMRS V (Funct. Performance) score” value (4 gm (2nd visit)) was 4, the “UMRS I (Self Assessment) score” value (4 gm (2nd visit)) was 15 and the “UMRS II (Myoclonus @ Rest) score” value (4 gm (2nd visit)) was 1. For the same compound, the “UMRS IV (Action Myoclonus) score” value (4 gm (2nd visit)) was 58, the “UMRS VII (Neg. Myoclonus) score” value (4 gm (2nd visit)) was 1 and the “UMRS VIII (Severity) score” value (4 gm) was 2. For the same compound, the “UMRS I (Global Disability) score” value (4 gm) was 2, the “UMRS VI (MD Global Disab.) score” value (4 gm) was 2 and the “UMRS III (Stimulus-Sens.) score” value (4 gm) was 1. For the same compound, the “UMRS V (Funct. Performance) score” value (4 gm) was 7, the “UMRS I (Self Assessment) score” value (4 gm) was 18 and the “UMRS II (Myoclonus @ Rest) score” value (4 gm) was 1. For the same compound, the “UMRS IV (Action Myoclonus) score” value (4 gm) was 53, the “UMRS VII (Neg. Myoclonus) score” value (4 gm) was 1 and the “myoclonus at rest and stimulus-sensitive myoclonus” value (UMRS and blinded video rating, divided doses during the day) was “complete resolution”. For the same compound, the duration of benefit (after the first 2 gm dose) was “approximately 3 hours”, the “time at which benefit peaked” value (after the first 2 gm dose) was “one” and the “time to marked diminution of myoclonus at rest and stimulus-sensitivity” value (after the first 2 gm dose) was at most 20 min. The “change in clinical examination” value (after the initial 1 gm dose) was “Little difference”, the “time of peak effect” value (each dose greater than or equal to 2 gm) was “one” and the “negative myoclonus, blinded videotape review” value (human, in vivo) was “did not confirm the examiner's impression that negative myoclonus improved”. For the same compound, the “improvement of functional performance (section V)” value (writing, spiral copying, pouring, using a spoon) was 80%.
